From patent publication US11834454B2, “Alkynylphenylbenzamide compounds and applications thereof” (SHENZHEN NEWDEL BIOTECH CO., LTD., priority 2021, dated 2023)

Key:
[1] = target: T1, BaF3-ETV6-NTRK2 (Homo sapiens, UniProt Q16620); assay: Cell proliferation inhibition, Ba/F3-TRKs stable strain (CCK-8); type: cell-based, mouse; conditions: 72 hours, read-out: cell viability IC50 ETV6-NTRK2
T1 construct: fused on or other part: P41212 (Transcription factor ETV6)
From the text: (§1) The BaF3 cells (mouse pre-B cells) used in this experiment were purchased from the Japanese Cell Bank. All of the monoclonal stable strains, BaF3-CD74-NTRK1, BaF3-ETV6-NTRK2 and BaF3-ETV6-NTRK3 were constructed by our laboratory, and were identified by experiments such as positive control, protein expression and gene sequencing.
(§2) The brief steps of stable strain construction were as follows: constructed pCDNA3.1(+) plasmid vector carrying genes such as CD74-NTRK1, ETV6-NTRK2, ETV6-NTRK3; the plasmid was electroporated into Ba/F3 cells using Amaxa® Cell Line Nucleofector® Kit V; 48 hours after electroporation, geneticin (G418) with a final concentration of 1000 μg/mL was added to screen for two weeks, and the interleukin 3 (IL3) was removed to continue screening to obtain polyclonal stable strains; and then single clones were selected by limiting dilution method; the stable strains were then identified by the positive drugs, Western Blot (WB), and gene sequencing; the correct monoclonal through identification can be used to study the cell proliferation inhibitory activity of the inhibitors.
(§3) Cell proliferation inhibitory activity study: The cells in logarithmic growth phase were seeded into 96-well plates at 8000-12000 cells/well, and the inhibitors at different concentrations of (0-10 μM) were added the next day, and the culture was continued for 72 hours; then 10 μL of Cell Counting Kit-8 Cell Counting Reagent (CCK-8 Reagent) was added to each well, and continued to incubate for 1-3 hours; then its absorbance at 450 nm and 650 nm were measured with a super microplate reader. The median inhibitory concentration (IC50) was calculated using medical graphing software (GraphPad Prism 8.0.0).

[2] = target: T2, BaF3-CD74-NTRK1 (Homo sapiens, UniProt P04629); assay: as above; type: cell-based, mouse; conditions: 72 hours, read-out: cell viability IC50 CD74-NTRK1
T2 construct: fused on or other part: P04233 (HLA class II histocompatibility antigen gamma chain)
From the text: as §1, §2, §3

[3] = target: T3, TRKA (Homo sapiens, UniProt P04629); assay: Z'-LYTE kinase activity detection, TRKA; type: biochemical
T3 construct: purchased American Life Technologies PV3144

[4] = target: T4, TRKB (Homo sapiens, UniProt Q16620); assay: Z'-LYTE kinase activity detection, TRKB; type: biochemical
T4 construct: purchased American Life Technologies PV3616

[5] = target: T5, TRKC (Homo sapiens, UniProt Q16288); assay: Z'-LYTE kinase activity detection, TRKC; type: biochemical
T5 construct: purchased American Life Technologies PV3617

[6] = target: T6, BaF3-ETV6-NTRK3 (Homo sapiens, UniProt Q16288); assay: Cell proliferation inhibition, Ba/F3-TRKs stable strain (CCK-8); type: cell-based, mouse; conditions: 72 hours, read-out: cell viability IC50 ETV6-NTRK3
T6 construct: fused on or other part: P41212 (Transcription factor ETV6)
From the text: as §1, §2, §3

T3 sequence (P04629 33-796): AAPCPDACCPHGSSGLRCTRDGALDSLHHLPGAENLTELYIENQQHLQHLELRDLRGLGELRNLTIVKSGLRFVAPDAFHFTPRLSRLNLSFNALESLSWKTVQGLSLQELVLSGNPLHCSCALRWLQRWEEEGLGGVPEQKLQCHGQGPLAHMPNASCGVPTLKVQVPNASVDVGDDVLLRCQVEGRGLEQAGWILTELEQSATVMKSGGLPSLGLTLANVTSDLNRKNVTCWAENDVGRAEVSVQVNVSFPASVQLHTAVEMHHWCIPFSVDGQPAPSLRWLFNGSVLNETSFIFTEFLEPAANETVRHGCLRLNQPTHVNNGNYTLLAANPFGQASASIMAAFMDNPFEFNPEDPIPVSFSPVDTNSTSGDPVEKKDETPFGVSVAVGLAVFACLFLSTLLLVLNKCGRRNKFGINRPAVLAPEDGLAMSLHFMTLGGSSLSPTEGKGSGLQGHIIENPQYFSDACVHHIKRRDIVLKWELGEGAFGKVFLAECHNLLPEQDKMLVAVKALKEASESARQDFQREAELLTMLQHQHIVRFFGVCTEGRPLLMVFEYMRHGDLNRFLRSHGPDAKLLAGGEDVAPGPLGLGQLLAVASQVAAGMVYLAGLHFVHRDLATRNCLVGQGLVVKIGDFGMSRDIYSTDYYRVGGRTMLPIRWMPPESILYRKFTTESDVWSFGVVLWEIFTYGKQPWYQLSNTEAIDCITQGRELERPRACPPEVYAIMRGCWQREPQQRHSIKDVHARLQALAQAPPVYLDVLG
T1 sequence (Q16620 538-822 limits assumed): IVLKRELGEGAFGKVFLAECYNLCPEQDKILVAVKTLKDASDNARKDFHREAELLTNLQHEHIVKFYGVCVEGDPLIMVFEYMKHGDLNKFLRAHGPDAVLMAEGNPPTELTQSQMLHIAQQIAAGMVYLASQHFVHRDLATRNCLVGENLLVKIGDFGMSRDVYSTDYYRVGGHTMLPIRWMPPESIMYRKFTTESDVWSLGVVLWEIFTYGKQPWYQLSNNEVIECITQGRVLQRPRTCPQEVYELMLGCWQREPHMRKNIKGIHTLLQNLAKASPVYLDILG
T4 sequence (Q16620 32-822): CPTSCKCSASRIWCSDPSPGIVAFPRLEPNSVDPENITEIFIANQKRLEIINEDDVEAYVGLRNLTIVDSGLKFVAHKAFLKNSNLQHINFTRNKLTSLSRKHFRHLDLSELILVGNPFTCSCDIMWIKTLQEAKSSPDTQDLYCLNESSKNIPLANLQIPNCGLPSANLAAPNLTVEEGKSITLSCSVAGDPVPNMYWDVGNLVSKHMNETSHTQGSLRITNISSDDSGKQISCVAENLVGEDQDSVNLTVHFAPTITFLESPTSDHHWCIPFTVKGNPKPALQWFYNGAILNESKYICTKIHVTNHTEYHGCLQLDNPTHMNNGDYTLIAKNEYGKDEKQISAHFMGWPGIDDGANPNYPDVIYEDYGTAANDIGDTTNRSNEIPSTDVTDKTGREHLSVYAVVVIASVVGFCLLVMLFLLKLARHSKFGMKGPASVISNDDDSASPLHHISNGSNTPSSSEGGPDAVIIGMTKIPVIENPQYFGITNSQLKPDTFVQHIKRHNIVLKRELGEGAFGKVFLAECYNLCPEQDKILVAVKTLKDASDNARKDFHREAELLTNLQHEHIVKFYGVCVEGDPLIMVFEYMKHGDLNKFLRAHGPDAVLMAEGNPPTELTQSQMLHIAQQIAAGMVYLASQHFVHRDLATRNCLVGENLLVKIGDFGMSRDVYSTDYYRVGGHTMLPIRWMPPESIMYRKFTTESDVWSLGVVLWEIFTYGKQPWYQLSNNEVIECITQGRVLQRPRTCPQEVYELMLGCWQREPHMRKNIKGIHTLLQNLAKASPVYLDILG
T5 sequence (Q16288 32-839): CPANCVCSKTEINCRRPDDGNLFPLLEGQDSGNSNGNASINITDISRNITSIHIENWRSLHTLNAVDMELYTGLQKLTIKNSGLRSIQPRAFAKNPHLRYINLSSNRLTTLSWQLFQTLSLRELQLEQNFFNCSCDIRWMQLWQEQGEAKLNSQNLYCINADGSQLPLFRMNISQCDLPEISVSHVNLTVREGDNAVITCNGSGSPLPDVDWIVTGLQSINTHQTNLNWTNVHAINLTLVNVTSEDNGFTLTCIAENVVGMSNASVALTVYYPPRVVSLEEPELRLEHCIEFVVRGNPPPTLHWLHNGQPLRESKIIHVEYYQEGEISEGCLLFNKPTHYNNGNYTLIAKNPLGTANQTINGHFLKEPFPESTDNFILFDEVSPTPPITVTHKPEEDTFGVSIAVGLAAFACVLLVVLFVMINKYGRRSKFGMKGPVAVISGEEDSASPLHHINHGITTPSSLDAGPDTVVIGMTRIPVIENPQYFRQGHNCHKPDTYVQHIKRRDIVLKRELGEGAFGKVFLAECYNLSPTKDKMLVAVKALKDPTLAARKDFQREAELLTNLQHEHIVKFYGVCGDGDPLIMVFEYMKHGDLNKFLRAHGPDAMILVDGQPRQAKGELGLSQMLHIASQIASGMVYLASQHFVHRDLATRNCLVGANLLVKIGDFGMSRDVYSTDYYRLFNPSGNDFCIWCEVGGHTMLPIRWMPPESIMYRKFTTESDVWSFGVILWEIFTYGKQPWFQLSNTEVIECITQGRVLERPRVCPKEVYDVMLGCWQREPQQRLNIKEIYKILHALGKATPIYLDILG
T6 sequence (Q16288 whole entry, the tested form may be a part): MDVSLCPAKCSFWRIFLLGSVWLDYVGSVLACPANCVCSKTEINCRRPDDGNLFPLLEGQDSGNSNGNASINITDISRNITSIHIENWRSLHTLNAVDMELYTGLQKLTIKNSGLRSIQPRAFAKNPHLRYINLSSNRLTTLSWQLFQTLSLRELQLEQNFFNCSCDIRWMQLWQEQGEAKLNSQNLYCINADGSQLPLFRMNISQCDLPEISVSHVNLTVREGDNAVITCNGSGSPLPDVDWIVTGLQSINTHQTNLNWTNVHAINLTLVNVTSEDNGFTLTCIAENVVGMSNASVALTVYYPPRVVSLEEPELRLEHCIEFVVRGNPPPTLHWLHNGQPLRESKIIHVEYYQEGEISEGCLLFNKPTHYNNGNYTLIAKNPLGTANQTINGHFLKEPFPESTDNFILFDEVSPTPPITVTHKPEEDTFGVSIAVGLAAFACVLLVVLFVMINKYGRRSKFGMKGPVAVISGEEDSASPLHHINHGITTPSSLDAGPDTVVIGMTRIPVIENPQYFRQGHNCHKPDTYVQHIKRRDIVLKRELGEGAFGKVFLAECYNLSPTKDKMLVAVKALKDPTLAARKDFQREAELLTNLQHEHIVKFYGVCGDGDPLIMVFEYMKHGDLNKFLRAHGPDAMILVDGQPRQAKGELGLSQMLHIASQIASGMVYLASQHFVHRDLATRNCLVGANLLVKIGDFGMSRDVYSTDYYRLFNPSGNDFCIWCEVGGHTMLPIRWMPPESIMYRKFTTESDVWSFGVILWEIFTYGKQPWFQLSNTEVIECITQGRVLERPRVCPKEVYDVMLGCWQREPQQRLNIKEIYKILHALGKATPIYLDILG
T2 sequence (P04629 510-796 limits assumed): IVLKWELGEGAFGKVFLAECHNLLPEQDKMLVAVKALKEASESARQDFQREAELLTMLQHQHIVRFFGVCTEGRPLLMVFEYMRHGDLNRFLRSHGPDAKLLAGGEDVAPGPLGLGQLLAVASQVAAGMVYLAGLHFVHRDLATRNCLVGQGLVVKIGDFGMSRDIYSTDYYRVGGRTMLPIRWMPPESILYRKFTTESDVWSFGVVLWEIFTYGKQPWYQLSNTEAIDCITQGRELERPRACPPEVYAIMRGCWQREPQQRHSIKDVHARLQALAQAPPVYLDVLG

Row | SMILES | IC50 [1] | IC50 [2] | IC50 [3] | IC50 [4] | IC50 [5] | IC50 [6]
1 | Cc1c(C#Cc2cnc3cccnn23)cccc1C(=O)Nc1cccc(C(F)(F)F)c1 [XS2-106] | 100 to 1000 nM | 100 to 1000 nM | 100 to 1000 nM | > 1000 nM | – | –
2 | Cc1c(C#Cc2cnc3cccnn23)cccc1C(=O)Nc1cc(F)cc(C(F)(F)F)c1 [XS2-109, N-(3-FLUORO-5-(TRIFLUOROMETHYL)PHENYL)-3-(IMIDAZO[1,2-B]PYRIDAZIN-3-YLETHYNYL)-2-METHYLBENZENE FORMAMIDE] | – | – | 100 to 1000 nM | > 1000 nM | 100 to 1000 nM | –
3 | Cc1c(C#Cc2cnc3cccnn23)cccc1C(=O)Nc1cc(Cl)cc(C(F)(F)F)c1 [XS2-112, N-(3-CHLORO-5-(TRIFLUOROMETHYL)PHENYL)-3-(IMIDAZO[1,2-B]PYRIDAZIN-3-YLETHYNYL)-2-METHYLBENZENE FORMAMIDE] | 100 to 1000 nM | 100 to 1000 nM | 100 to 1000 nM | 100 to 1000 nM | 100 to 1000 nM | 100 to 1000 nM
4 | Cc1c(C#Cc2cnc3ncccn23)cccc1C(=O)Nc1cc(CN2CCN(C)CC2)cc(C(F)(F)F)c1 [XS2-161] | > 1000 nM | > 1000 nM | 100 to 1000 nM | > 1000 nM | 100 to 1000 nM | > 1000 nM
5 | Cc1c(C#Cc2cnc3ccc(N4CCOCC4)nn23)cccc1C(=O)Nc1cccc(C(F)(F)F)c1 [XS3-23, 2-METHYL-3-((6-MORPHOLINIMIDAZO[1,2-B]PYRIDAZIN-3-YL)ETHYNYL)-N-(3-(TRIFLUOROMETHYL)BENZENE BASE) BENZAMIDE] | 10 to 100 nM | 10 to 100 nM | 10 to 100 nM | 10 to 100 nM | 10 to 100 nM | 10 to 100 nM
6 | Cc1c(C#Cc2cnc3ccc(N4CC[C@H](O)C4)nn23)cccc1C(=O)Nc1cccc(C(F)(F)F)c1 [XS3-35, (S)-3-((6-(3-HYDROXYPYRROLIDIN-1-YL)IMIDAZO[1,2-B]PYRIDAZIN-3-YL)ETHYNYL)-2-METHYL-N-(3-(TRIFLUOROMETHYL)PHENYL)BENZAMIDE] | 100 to 1000 nM | 10 to 100 nM | < 10 nM | 10 to 100 nM | < 10 nM | 10 to 100 nM
7 | Cc1c(C#Cc2cnc3ccc(N4CC[C@H](O)C4)nn23)cccc1C(=O)Nc1cc(CN2CCN(C)CC2)cc(C(F)(F)F)c1 [XS3-36, (S)-3-((6-(3-HYDROXYPYRROLIDIN-1-YL)IMIDAZO[1,2-B]PYRIDAZIN-3-YL)ETHYNYL)-2-METHYL-N-(3-((4-METHYLPIPERAZIN-1-YL)METHYL)-5-(TRIFLUOROMETHYL)PHENYL)BENZAMIDE] | 10 to 100 nM | 10 to 100 nM | 10 to 100 nM | 10 to 100 nM | < 10 nM | 10 to 100 nM
8 | Cc1c(C#Cc2cnc3ccc(N4CCN(C)CC4)nn23)cccc1C(=O)Nc1cc(Cl)cc(C(F)(F)F)c1 [XS3-51, N-(3-CHLORO-5-(TRIFLUOROMETHYL)PHENYL)-2-METHYL-3-((6-(4-METHYLPIPERAZIN-1-YL)IMIDAZO[1,2-B]PYRIDAZIN-3-YL)ETHYNYL)BENZAMIDE] | 100 to 1000 nM | 100 to 1000 nM | 10 to 100 nM | 10 to 100 nM | < 10 nM | 10 to 100 nM
9 | Cc1c(C#Cc2cnc3ccc(N4CCN(C)[C@H](C)C4)nn23)cccc1C(=O)Nc1cc(Cl)cc(C(F)(F)F)c1 [XS3-52, (R)—N-(3-CHLORO-5-(TRIFLUOROMETHYL)PHENYL)-3-((6-(3,4-DIMETHYLPIPERAZIN-1-YL)IMIDAZO[1,2-B]PYRIDAZIN-3-YL)ETHYNYL)-2-METHYLBENZAMIDE] | 100 to 1000 nM | 10 to 100 nM | 10 to 100 nM | 10 to 100 nM | 10 to 100 nM | 10 to 100 nM
10 | Cc1c(C#Cc2cnc3ccc(NCCN4CCOCC4)nn23)cccc1C(=O)Nc1cc(Cl)cc(C(F)(F)F)c1 [XS3-53, N-(3-CHLORO-5-(TRIFLUOROMETHYL)PHENYL)-2-METHYL-3-((6-((2-MORPHOLINOETHYL)AMINO)IMIDAZO[1,2-B]PYRIDAZIN-3-YL)ETHYNYL)BENZAMIDE] | 100 to 1000 nM | 10 to 100 nM | < 10 nM | 10 to 100 nM | < 10 nM | 10 to 100 nM
11 | CC(=O)N1CCN(c2ccc3ncc(C#Cc4cccc(C(=O)Nc5cc(Cl)cc(C(F)(F)F)c5)c4C)n3n2)CC1 [XS3-54, 3-((6-(4-ACETYLPIPERAZIN-1-YL)IMIDAZO[1,2-B]PYRIDAZIN-3-YL)ETHYNYL)-N-(3-CHLORO-5-(TRIFLUORO) METHYL)PHENYL)-2-METHYLBENZAMIDE] | 10 to 100 nM | 10 to 100 nM | < 10 nM | 10 to 100 nM | < 10 nM | 10 to 100 nM
12 | Cc1c(C#Cc2cnc3ccc(N4CCC(N(C)C)CC4)nn23)cccc1C(=O)Nc1cc(Cl)cc(C(F)(F)F)c1 [XS3-56, N-(3-CHLORO-5-(TRIFLUOROMETHYL)PHENYL)-3-((6-(4-(DIMETHYLAMINO)PIPERIDIN-1-YL)IMIDAZO[1,2-B]PYRIDAZIN-3-YL)ETHYNYL)-2-METHYLBENZAMIDE] | 100 to 1000 nM | 100 to 1000 nM | 10 to 100 nM | 10 to 100 nM | 10 to 100 nM | 10 to 100 nM
13 | Cc1c(C#Cc2cnc3ccc(N4CCC(N(C)C)CC4)nn23)cccc1C(=O)Nc1cccc(C(F)(F)F)c1 [XS3-57, 3-((6-(4-(DIMETHYLAMINO)PIPERIDIN-1-YL)IMIDAZO[1,2-B]PYRIDAZIN-3-YL)ETHYNYL)-2-METHYL-N-(3-(TRIFLUOROMETHYL)PHENYL)BENZAMIDE] | 100 to 1000 nM | 10 to 100 nM | < 10 nM | < 10 nM | < 10 nM | 10 to 100 nM
14 | Cc1c(C#Cc2cnc3ccc(N4CC[C@H](O)C4)nn23)cccc1C(=O)Nc1cc(Cl)cc(C(F)(F)F)c1 [XS3-58, (S)—N-(3-CHLORO-5-(TRIFLUOROMETHYL)PHENYL)-3-((6-(3-HYDROXYPYRROLIDIN-1-YL)IMIDAZO[1,2-B]PYRIDAZIN-3-YL)ETHYNYL)-2-METHYLBENZAMIDE] | 100 to 1000 nM | 100 to 1000 nM | 10 to 100 nM | 10 to 100 nM | 10 to 100 nM | 10 to 100 nM
15 | Cc1c(C#Cc2cnc3ccc(N4CCOCC4)nn23)cccc1C(=O)Nc1cc(Cl)cc(C(F)(F)F)c1 [XS3-61, N-(3-CHLORO-5-(TRIFLUOROMETHYL)PHENYL)-2-METHYL-3-((6-MORPHOLINIMIDAZO[1,2-B]PYRIDAZINE-3-YL)ETHYNYL)BENZAMIDE] | – | 10 to 100 nM | 10 to 100 nM | 10 to 100 nM | 10 to 100 nM | 10 to 100 nM
16 | Cc1c(C#Cc2cnc3ccc(N4CCC(N(C)C)CC4)nn23)cccc1C(=O)Nc1cc(CN2CCN(C)CC2)cc(C(F)(F)F)c1 [XS3-67, 3-((6-(4-(DIMETHYLAMINO)PIPERIDIN-1-YL)IMIDAZO[1,2-B]PYRIDAZIN-3-YL)ETHYNYL)-2-METHYL-N-(3-((4-METHYLPIPERAZIN-1-YL)METHYL)-5-(TRIFLUOROMETHYL)PHENYL)BENZAMIDE] | 100 to 1000 nM | 100 to 1000 nM | < 10 nM | 10 to 100 nM | < 10 nM | 10 to 100 nM
17 | Cc1c(C#Cc2cnc3ccc(N4CCOCC4)nn23)cccc1C(=O)Nc1cc(F)cc(C(F)(F)F)c1 [XS4-80] | 10 to 100 nM | 10 to 100 nM | 10 to 100 nM | – | 10 to 100 nM | 10 to 100 nM
18 | Cc1cc(NC(=O)c2cccc(C#Cc3cnc4ccc(N5CCOCC5)nn34)c2C)cc(C(F)(F)F)c1 [XS4-81] | 10 to 100 nM | 10 to 100 nM | 10 to 100 nM | – | 10 to 100 nM | < 10 nM
